Broadly, the IC50 is the point on the concentration scale where inhibition reaches its midpoint. Low readings indicate greater potency in that assay, high ones weaker potency in that assay.

Our source for the IC50 values is ChEMBL document CHEMBL1795249, “Triazole-linked reduced amide isosteres: an approach for the fragment-based drug discovery of anti-Alzheimer's BACE1 inhibitors” (Bioorg Med Chem Lett, 2011).

Chain of Beta-secretase 1 (P56817 whole entry): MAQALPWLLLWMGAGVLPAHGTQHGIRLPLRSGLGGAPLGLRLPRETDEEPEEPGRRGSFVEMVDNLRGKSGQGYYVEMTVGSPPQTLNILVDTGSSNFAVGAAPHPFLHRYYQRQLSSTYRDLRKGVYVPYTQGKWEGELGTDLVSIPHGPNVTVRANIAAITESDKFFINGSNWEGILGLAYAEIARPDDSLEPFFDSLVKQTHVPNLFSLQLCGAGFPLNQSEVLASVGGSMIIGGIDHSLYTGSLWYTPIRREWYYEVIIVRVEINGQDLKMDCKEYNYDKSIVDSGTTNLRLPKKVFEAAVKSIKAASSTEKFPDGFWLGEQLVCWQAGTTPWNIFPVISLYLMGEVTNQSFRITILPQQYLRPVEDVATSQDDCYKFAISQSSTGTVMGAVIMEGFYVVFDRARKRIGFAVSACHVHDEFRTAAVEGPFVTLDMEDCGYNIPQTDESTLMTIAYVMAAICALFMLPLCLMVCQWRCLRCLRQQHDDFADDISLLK

This assay concerns the target Beta-secretase 1 (Homo sapiens, UniProt P56817). Kind of assay: Inhibition of BACE1 by cell-free FRET assay.
`C[C@@H](NC(=O)c1cc(-c2cn([C@H](CNCc3cccc(Br)c3)Cc3ccccc3)nn2)cc(N(C)S(C)(=O)=O)c1)c1ccccc1` showed an IC50 of 2000 nM. Compound `COc1cccc(CNC[C@H](Cc2ccccc2)n2cc(-c3cc(C(=O)N[C@H](C)c4ccccc4)cc(N(C)S(C)(=O)=O)c3)nn2)c1` showed an IC50 of 7000 nM. In turn, `C#Cc1cccc(NC2CC(Nc3cccc(-c4cn([C@H](CNCc5cccc(Br)c5)Cc5ccccc5)nn4)c3)C(O)CC2O)c1` (mixture of isomers) yielded an IC50 of 2400 nM. With `C#Cc1cccc(NC2CC(O)C(Nc3cccc(-c4cn([C@H](CNCc5cccc(Br)c5)Cc5ccccc5)nn4)c3)CC2O)c1` (mixture of isomers), the IC50 worked out at 3400 nM.
